Consider three compounds from ChEMBL document CHEMBL4177586, “Small molecule adjuvants that suppress both chromosomal and mcr-1 encoded colistin-resistance and amplify colistin efficacy in polymyxin-susceptible bacteria” (Bioorg Med Chem, 2017).

The subject of data set [1] is Klebsiella pneumoniae. Put plainly: Toxicity against Klebsiella pneumoniae 2210291 expressing mcr1 gene incubated for overnight duration by CLSI based method. It counts as organism-based. As to conditions: in vivo.
In data set [2] the test system is Klebsiella pneumoniae. As to the kind of experiment: Potentiation of colistin-induced antimicrobial activity against multidrug resistant Klebsiella pneumoniae BAA2146 assessed as minimum drug concentration needed to cause colsitin MIC of 0.125 ug/ml incubated for overnight duration by CLSI based method. It counts as functional.
Data set [3] concerns Acinetobacter baumannii. As to the kind of experiment: Toxicity against Acinetobacter baumannii ATCC 17978 expressing mcr1 gene incubated for overnight duration by CLSI based method. It counts as organism-based. As to conditions: in vivo.
Data set [4] has as its system Escherichia coli. As to the kind of experiment: Potentiation of colistin-induced antimicrobial activity against Escherichia coli ATCC 25922 assessed as colistin MIC at 30 uM incubated for overnight duration by CLSI based method (reference value: […]). It counts as functional.
In data set [5] the test system is Escherichia coli. As to the kind of experiment: Potentiation of colistin-induced antimicrobial activity against Escherichia coli ATCC 25922 expressing mcr1 gene assessed as colistin MIC at 30 uM incubated for overnight duration by CLSI based method (reference value: 8 ug/ml). It counts as functional.
Data set [6] has as its system Acinetobacter baumannii. Put plainly: Potentiation of colistin-induced antimicrobial activity against Acinetobacter baumannii ATCC 17978 expressing mcr1 gene assessed as colistin MIC at 30 uM incubated for overnight duration by CLSI based method (reference value: 16 ug/ml). It counts as functional.
The test system of data set [7] is Acinetobacter baumannii. Put plainly: Toxicity against Acinetobacter baumannii SM1536 expressing mcr1 gene incubated for overnight duration by CLSI based method. It counts as organism-based. As to conditions: in vivo.
The subject of data set [8] is Escherichia coli. Put plainly: Toxicity against Escherichia coli YD626 expressing mcr1 gene incubated for overnight duration by CLSI based method. It counts as organism-based. The following applies: in vivo.
Data set [9] relates to Klebsiella pneumoniae. As to the kind of experiment: Potentiation of colistin-induced antimicrobial activity against Klebsiella pneumoniae 2210291 expressing mcr1 gene assessed as reduction in colistin MIC at 30 uM incubated for overnight duration by CLSI based method relative to colistin alone control. It counts as functional.
In data set [10] the test system is Escherichia coli. As to the kind of experiment: Toxicity against Escherichia coli ATCC 25922 expressing mcr1 gene incubated for overnight duration by CLSI based method. As to conditions: in vivo. It counts as organism-based.
The test system of data set [11] is Klebsiella pneumoniae. Put plainly: Potentiation of colistin-induced antimicrobial activity against Klebsiella pneumoniae 2210291 expressing mcr1 gene assessed as colistin MIC at 15 uM incubated for overnight duration by CLSI based method (reference value: 16 ug/ml). It counts as functional.
Data set [12] concerns Acinetobacter baumannii. Put plainly: Potentiation of colistin-induced antimicrobial activity against colistin-resistant Acinetobacter baumannii PM3941 assessed as reduction in colistin MIC at 15 uM incubated for overnight duration by CLSI based method relative to colistin alone control. It counts as functional.
For data set [13], the system named is Escherichia coli. Put plainly: Potentiation of colistin-induced antimicrobial activity against Escherichia coli YD626 expressing mcr1 gene assessed as reduction in colistin MIC at 60 uM incubated for overnight duration by CLSI based method relative to colistin alone control. It counts as functional.
Data set [14] concerns Acinetobacter baumannii. Put plainly: Potentiation of colistin-induced antimicrobial activity against colistin-resistant Acinetobacter baumannii PM3942 assessed as colistin MIC at 30 uM incubated for overnight duration by CLSI based method (reference value: 512 ug/ml). It counts as functional.
For data set [15], the system named is Acinetobacter baumannii. Put plainly: Potentiation of colistin-induced antimicrobial activity against Acinetobacter baumannii ATCC 17978 expressing mcr1 gene assessed as reduction in colistin MIC at 60 uM incubated for overnight duration by CLSI based method relative to colistin alone control. It counts as functional.
Data set [16] deals with Klebsiella pneumoniae. As to the kind of experiment: Potentiation of colistin-induced antimicrobial activity against colistin-resistant Klebsiella pneumoniae C3 assessed as reduction in colistin MIC at 15 uM incubated for overnight duration by CLSI based method relative to colistin alone control. It counts as functional.
For data set [17], the system named is Klebsiella pneumoniae. As to the kind of experiment: Potentiation of colistin-induced antimicrobial activity against Klebsiella pneumoniae 2210291 expressing mcr1 gene assessed as colistin MIC at 60 uM incubated for overnight duration by CLSI based method (reference value: 16 ug/ml). It counts as functional.
Data set [18] has as its system Acinetobacter baumannii. Put plainly: Potentiation of colistin-induced antimicrobial activity against colistin-resistant Acinetobacter baumannii PM3941 assessed as colistin MIC at 30 uM incubated for overnight duration by CLSI based method (reference value: 512 ug/ml). It counts as functional.
For data set [19], the system named is Acinetobacter baumannii. As to the kind of experiment: Potentiation of colistin-induced antimicrobial activity against Acinetobacter baumannii SM1536 expressing mcr1 gene assessed as reduction in colistin MIC at 60 uM incubated for overnight duration by CLSI based method relative to colistin alone control. It counts as functional.
Data set [20] concerns Acinetobacter baumannii. Put plainly: Potentiation of colistin-induced antimicrobial activity against colistin-resistant Acinetobacter baumannii PM4119 assessed as reduction in colistin MIC at 60 uM incubated for overnight duration by CLSI based method relative to colistin alone control. It counts as functional.
Data set [21] relates to Acinetobacter baumannii. Put plainly: Potentiation of colistin-induced antimicrobial activity against colistin-resistant Acinetobacter baumannii PM4112 assessed as colistin MIC at 60 uM incubated for overnight duration by CLSI based method (reference value: 1024 ug/ml). It counts as functional.
In data set [22] the test system is Klebsiella pneumoniae. Put plainly: Potentiation of colistin-induced antimicrobial activity against colistin-resistant Klebsiella pneumoniae C3 assessed as colistin MIC at 15 uM incubated for overnight duration by CLSI based method (reference value: 512 ug/ml). It counts as functional.
For data set [23], the system named is Klebsiella pneumoniae. As to the kind of experiment: Potentiation of colistin-induced antimicrobial activity against colistin-resistant Klebsiella pneumoniae C3 assessed as colistin MIC at 60 uM incubated for overnight duration by CLSI based method (reference value: 512 ug/ml). It counts as functional.
The subject of data set [24] is Klebsiella pneumoniae. Put plainly: Potentiation of colistin-induced antimicrobial activity against colistin-resistant Klebsiella pneumoniae C3 assessed as reduction in colistin MIC at 30 uM incubated for overnight duration by CLSI based method relative to colistin alone control. It counts as functional.
For data set [25], the system named is Klebsiella pneumoniae. Put plainly: Potentiation of colistin-induced antimicrobial activity against colistin-resistant Klebsiella pneumoniae C5 assessed as reduction in colistin MIC at 30 uM incubated for overnight duration by CLSI based method relative to colistin alone control. It counts as functional.
Data set [26] has as its system Acinetobacter baumannii. Put plainly: Potentiation of colistin-induced antimicrobial activity against colistin-resistant Acinetobacter baumannii PM3941 assessed as colistin MIC at 60 uM incubated for overnight duration by CLSI based method (reference value: 512 ug/ml). It counts as functional.
The test system of data set [27] is Klebsiella pneumoniae. As to the kind of experiment: Potentiation of colistin-induced antimicrobial activity against colistin-resistant Klebsiella pneumoniae B9 assessed as colistin MIC at 15 uM incubated for overnight duration by CLSI based method (reference value: 512 ug/ml). It counts as functional.
Data set [28] concerns Klebsiella pneumoniae. As to the kind of experiment: Potentiation of colistin-induced antimicrobial activity against colistin-resistant Klebsiella pneumoniae B9 assessed as colistin MIC at 60 uM incubated for overnight duration by CLSI based method (reference value: 512 ug/ml). It counts as functional.
Data set [29] concerns Acinetobacter baumannii. As to the kind of experiment: Potentiation of colistin-induced antimicrobial activity against colistin-resistant Acinetobacter baumannii PM3941 assessed as colistin MIC at 15 uM incubated for overnight duration by CLSI based method (reference value: 512 ug/ml). It counts as functional.
Data set [30] deals with Klebsiella pneumoniae. As to the kind of experiment: Potentiation of colistin-induced antimicrobial activity against colistin-resistant Klebsiella pneumoniae C5 assessed as colistin MIC at 15 uM incubated for overnight duration by CLSI based method (reference value: 128 ug/ml). It counts as functional.
Data set [31] concerns Klebsiella pneumoniae. Put plainly: Potentiation of colistin-induced antimicrobial activity against Klebsiella pneumoniae 2210291 expressing mcr1 gene assessed as reduction in colistin MIC at 60 uM incubated for overnight duration by CLSI based method relative to colistin alone control. It counts as functional.
Data set [32] concerns Acinetobacter baumannii. As to the kind of experiment: Potentiation of colistin-induced antimicrobial activity against Acinetobacter baumannii SM1536 expressing mcr1 gene assessed as colistin MIC at 60 uM incubated for overnight duration by CLSI based method (reference value: 64 ug/ml). It counts as functional.
Data set [33] concerns Acinetobacter baumannii. Put plainly: Toxicity against multidrug resistant Acinetobacter baumannii 5075 incubated for overnight duration by CLSI based method. The following applies: in vivo. It counts as organism-based.

Converted amounts (≈) assume the structure as drawn.

For the compound `CCCCCCc1ccc(-c2cn(C(C)C)c(N)n2)cc1`, the MIC is above 200 µM in [1]; 20 µM in data set [2]; above 200 µM in data set [3]; 0.0039 µg/mL in data set [4]; 0.016 µg/mL in data set [5]; 0.5 µg/mL in data set [6]. Also, the MIC in [7] was above 200 µM; in data set [8], above 200 µM; in data set [10], above 200 µM; in data set [11], 8 µg/mL. Besides, in data set [9], the “fold change (FC)” value amounted to 32.
Consider `CCCCCc1ccc(C(=O)NCCn2cc(CCCCCc3cnc(N)n3Cc3ccc(CCCC)cc3)nn2)cc1`, for which the “fold change (FC)” value is 16 in data set [12]; above 2048 in data set [13]; 64 in data set [15]; 8 in data set [16]; 64 in [19]; 512 in [20]. Moreover, the “fold change (FC)” value in data set [24] was found to be 32; in [25] it was 32; in data set [9] it was 64; in data set [31] it was 128. The MIC is 16 µg/mL in data set [14]; 10 µM in data set [2]; below 0.00049 µg/mL in data set [4]; 0.125 µg/mL in [17]; 16 µg/mL in [18]; 0.25 µg/mL in data set [5]. In addition, the MIC in [21] was found to be 8 µg/mL; in data set [22], 64 µg/mL; in data set [23] it was 8 µg/mL; in data set [6] it was 0.5 µg/mL; in data set [26] it was 8 µg/mL; in [27], 32 µg/mL. For the same compound, the MIC was found to be 4 µg/mL in [28]; 32 µg/mL in data set [29]; 1 µg/mL in [11]; 32 µg/mL in [30]; 1 µg/mL in data set [32].
In the case of `CCCCCCc1ccc(-c2cn(CC)c(N)n2)cc1`, the MIC was 200 µM (≈ 54.3 µg/mL) in data set [33]; above 200 µM in [1]; 15 µM in data set [2]; above 200 µM in data set [3]; 0.00098 µg/mL in data set [4]; below 0.0039 µg/mL in data set [5]. Further, the MIC was 0.5 µg/mL in data set [6]; above 200 µM in data set [7]; 100 µM (≈ 27.1 µg/mL) in data set [8]; 50 µM (≈ 13.6 µg/mL) in data set [10]; 4 µg/mL in [11]. In addition, the “fold change (FC)” value in data set [9] came out at 128.
